# The source made the active and inactive calls. The rule behind the calls is not given here.
# Experiments:
# [1] = test system: Plasmacytoid dendritic cell; test: Inhibition of F1F0-ATP synthase in human plasmacytoid dendritic cells at 1 uM assessed as decrease in IFN-alpha production; assay type: cell-based
# [2] = test system: Plasmacytoid dendritic cell; test: Inhibition of F1F0-ATP synthase in CpG-A-stimulated human plasmacytoid dendritic cells at 1 uM assessed as reduction in TNF production in presence of 10 uM heptelidic acid; assay type: cell-based
# [3] = test system: Plasmacytoid dendritic cell; test: Inhibition of F1F0-ATP synthase in human plasmacytoid dendritic cells at 1 uM assessed as decrease in TNF production; assay type: cell-based
# [4] = test system: Plasmacytoid dendritic cell; test: Inhibition of F1F0-ATP synthase in CpG-A-stimulated human plasmacytoid dendritic cells at 1 uM assessed as reduction in IFN-alpha production in presence of 10 uM heptelidic acid; assay type: cell-based
# [5] = biological target: T1, Signal transducer and activator of transcription 5A (Homo sapiens) (UniProt P42229); test: Inhibition of STAT5 in IL-3 and CpG-A-stimulated human plasmacytoid dendritic cells at 1 to 2 uM assessed as decrease in IFN-alpha production in presence of 100 uM sulfasalazine; assay type: cell-based; settings: Plasmacytoid dendritic cell, dose 1-2 µM
# T1 sequence (whole entry): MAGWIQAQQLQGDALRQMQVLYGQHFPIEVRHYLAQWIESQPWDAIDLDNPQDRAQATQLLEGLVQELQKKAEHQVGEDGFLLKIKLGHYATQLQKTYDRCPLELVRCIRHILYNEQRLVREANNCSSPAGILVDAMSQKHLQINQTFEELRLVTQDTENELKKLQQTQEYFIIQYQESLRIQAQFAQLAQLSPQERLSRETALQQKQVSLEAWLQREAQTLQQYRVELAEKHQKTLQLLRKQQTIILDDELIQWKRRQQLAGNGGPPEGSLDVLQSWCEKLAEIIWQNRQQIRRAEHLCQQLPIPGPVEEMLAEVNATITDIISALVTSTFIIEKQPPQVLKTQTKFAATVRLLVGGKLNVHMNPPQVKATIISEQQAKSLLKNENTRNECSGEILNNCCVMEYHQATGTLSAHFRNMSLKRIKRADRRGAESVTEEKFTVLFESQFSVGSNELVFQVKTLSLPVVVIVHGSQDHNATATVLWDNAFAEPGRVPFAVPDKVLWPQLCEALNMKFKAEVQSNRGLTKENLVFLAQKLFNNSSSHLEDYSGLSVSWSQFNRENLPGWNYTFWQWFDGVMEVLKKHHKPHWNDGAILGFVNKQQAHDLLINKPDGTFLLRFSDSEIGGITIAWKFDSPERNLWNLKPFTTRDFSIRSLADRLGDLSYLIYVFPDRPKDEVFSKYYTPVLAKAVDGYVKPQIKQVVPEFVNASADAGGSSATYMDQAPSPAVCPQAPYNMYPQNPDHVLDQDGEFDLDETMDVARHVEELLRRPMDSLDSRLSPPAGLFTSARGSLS
# [6] = biological target: T1, Signal transducer and activator of transcription 5A (Homo sapiens); test: Inhibition of STAT5 in IL-3 and CpG-A-stimulated human plasmacytoid dendritic cells at 1 to 2 uM assessed as decrease in TNF production in presence of 100 uM sulfasalazine; assay type: cell-based; settings: Plasmacytoid dendritic cell, dose 1-2 µM
# [7] = biological target: Large neutral amino acids transporter small subunit 1 (Homo sapiens) (UniProt Q01650); test: Inhibition of human LAT1 at 100 uM relative to control
# [8] = test system: Plasmacytoid dendritic cell; test: Inhibition of SLC7A5/SLC3A2 in CpG-A-stimulated human plasmacytoid dendritic cells at 10 uM assessed as decrease in kynurenine transport; assay type: cell-based
# [9] = biological target: T2, Cystine/glutamate transporter (Homo sapiens) (UniProt Q9UPY5); test: Inhibition of XCT in CpG-A-activated human plasmacytoid dendritic cells at 25 to 100 uM assessed as decrease in TNF production in presence of 100 uM sulfasalazine; assay type: cell-based; settings: Plasmacytoid dendritic cell, dose 25-100 µM
# T2 sequence (whole entry): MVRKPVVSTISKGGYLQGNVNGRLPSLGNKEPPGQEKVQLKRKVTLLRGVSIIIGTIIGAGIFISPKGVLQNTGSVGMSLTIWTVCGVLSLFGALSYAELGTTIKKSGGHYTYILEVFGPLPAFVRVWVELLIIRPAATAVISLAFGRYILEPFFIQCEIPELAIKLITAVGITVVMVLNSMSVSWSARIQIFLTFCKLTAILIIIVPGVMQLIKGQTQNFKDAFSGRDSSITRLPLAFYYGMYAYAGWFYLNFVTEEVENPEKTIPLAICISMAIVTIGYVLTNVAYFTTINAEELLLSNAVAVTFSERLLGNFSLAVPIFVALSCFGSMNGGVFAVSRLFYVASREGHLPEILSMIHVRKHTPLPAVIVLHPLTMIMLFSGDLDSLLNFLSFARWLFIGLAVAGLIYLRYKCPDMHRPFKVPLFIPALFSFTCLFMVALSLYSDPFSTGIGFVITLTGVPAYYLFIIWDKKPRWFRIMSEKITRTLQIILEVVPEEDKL
# [10] = biological target: Tyrosine-protein kinase JAK2 (Homo sapiens) (UniProt O60674); test: Inhibition of JAK2 in CpG-A and GM-CSF-activated human plasmacytoid dendritic cells at 1 uM assessed as decrease in IFN-alpha production; assay type: cell-based; settings: Plasmacytoid dendritic cell
# [11] = biological target: Tyrosine-protein kinase JAK2 (Homo sapiens) (UniProt O60674); test: Inhibition of JAK2 in CpG-A and GM-CSF-activated human plasmacytoid dendritic cells at 1 uM assessed as decrease in kynurenine uptake; assay type: cell-based; settings: Plasmacytoid dendritic cell
# [12] = biological target: Tyrosine-protein kinase JAK2 (Homo sapiens) (UniProt O60674); test: Inhibition of JAK2 in CpG-A and GM-CSF-activated human plasmacytoid dendritic cells at 1 uM assessed as decrease in TNF production; assay type: cell-based; settings: Plasmacytoid dendritic cell
# [13] = biological target: Tyrosine-protein kinase JAK2 (Homo sapiens) (UniProt O60674); test: Inhibition of JAK2 in CpG-A and GM-CSF-activated human plasmacytoid dendritic cells at 1 uM assessed as decrease in mTORC1 activity; assay type: cell-based; settings: Plasmacytoid dendritic cell
# Large neutral amino acids transporter small subunit 1 (Homo sapiens), sequence (Q01650 whole entry): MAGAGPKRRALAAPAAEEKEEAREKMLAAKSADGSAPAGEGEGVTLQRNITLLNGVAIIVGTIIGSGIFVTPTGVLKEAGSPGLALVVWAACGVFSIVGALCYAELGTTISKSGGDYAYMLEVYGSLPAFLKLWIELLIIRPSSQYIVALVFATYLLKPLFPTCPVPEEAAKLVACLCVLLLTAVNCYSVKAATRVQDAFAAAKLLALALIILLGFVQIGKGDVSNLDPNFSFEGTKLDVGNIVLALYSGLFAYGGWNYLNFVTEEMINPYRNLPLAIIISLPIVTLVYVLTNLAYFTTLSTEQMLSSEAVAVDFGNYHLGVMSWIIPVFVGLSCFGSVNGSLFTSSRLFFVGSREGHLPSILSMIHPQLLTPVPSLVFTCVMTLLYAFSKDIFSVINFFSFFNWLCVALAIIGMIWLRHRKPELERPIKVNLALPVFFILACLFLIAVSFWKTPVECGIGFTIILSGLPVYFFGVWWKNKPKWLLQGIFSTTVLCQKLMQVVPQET
# Tyrosine-protein kinase JAK2 (Homo sapiens), sequence (O60674 whole entry): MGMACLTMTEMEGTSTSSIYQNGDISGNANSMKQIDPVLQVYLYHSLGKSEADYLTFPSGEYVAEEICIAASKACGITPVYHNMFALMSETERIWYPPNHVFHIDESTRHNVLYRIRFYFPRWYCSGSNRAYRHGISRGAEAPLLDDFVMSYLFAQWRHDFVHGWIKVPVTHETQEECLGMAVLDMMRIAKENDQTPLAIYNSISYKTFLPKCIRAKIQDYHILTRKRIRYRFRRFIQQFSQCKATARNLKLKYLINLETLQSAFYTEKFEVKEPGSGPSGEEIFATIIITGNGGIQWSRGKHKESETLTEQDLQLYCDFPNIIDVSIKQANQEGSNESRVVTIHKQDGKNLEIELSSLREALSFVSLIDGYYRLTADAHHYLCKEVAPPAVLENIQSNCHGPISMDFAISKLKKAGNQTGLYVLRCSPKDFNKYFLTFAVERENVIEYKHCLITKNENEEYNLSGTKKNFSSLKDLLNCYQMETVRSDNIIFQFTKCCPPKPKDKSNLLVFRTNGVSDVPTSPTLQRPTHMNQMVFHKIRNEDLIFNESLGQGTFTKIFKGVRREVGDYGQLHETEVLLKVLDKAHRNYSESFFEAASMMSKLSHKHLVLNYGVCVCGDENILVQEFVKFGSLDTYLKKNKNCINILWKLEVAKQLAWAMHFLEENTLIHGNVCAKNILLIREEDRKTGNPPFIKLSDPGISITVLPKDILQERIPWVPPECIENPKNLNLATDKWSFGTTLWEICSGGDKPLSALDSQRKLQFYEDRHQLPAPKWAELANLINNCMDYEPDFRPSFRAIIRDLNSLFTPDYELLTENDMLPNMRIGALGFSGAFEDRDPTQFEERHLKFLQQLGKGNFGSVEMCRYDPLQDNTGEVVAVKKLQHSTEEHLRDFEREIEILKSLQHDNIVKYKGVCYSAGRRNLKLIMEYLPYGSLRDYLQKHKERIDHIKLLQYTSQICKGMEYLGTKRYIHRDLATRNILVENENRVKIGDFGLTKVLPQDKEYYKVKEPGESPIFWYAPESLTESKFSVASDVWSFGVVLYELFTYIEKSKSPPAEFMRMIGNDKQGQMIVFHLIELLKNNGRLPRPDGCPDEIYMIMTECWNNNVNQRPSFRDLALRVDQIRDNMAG
compound,measurement,setting,value
CC[C@H]1/C=C/C=C/C[C@@H](C)[C@H](O)[C@@](C)(O)C(=O)[C@@H](C)[C@H](O)[C@@H](C)C(=O)[C@@H](C)[C@H](O)[C@@H](C)/C=C/C(=O)O[C@@H]2[C@H](C)[C@H](CC1)O[C@]1(CC[C@H](C)[C@H](C[C@@H](C)O)O1)[C@H]2C,inhibition,[1],Active
same,inhibition,[2],Active
same,inhibition,[3],inactive
same,inhibition,[4],Active
CC(C)(C)c1cc(CN(C(=O)CN(Cc2ccc(Cl)cc2)S(=O)(=O)c2c(F)c(F)c(F)c(F)c2F)c2ccc(C(=O)O)cc2)cc(C(C)(C)C)c1,inhibition,[5],Active
same,inhibition,[6],Active
Fc1ccc(Cl)cc1/N=c1\ssnc1Cl,inhibition,[7],> 90%
NC1(C(=O)O)CC2CCC1C2 (configuration not stated),inhibition,[8],Active
N#C/C=N/c1c(SS)c(-c2ccccc2)nn1Cc1ccccc1,inhibition,[7],> 90%
CCS(=O)(=O)N1CC(CC#N)(n2cc(-c3ncnc4[nH]ccc34)cn2)C1,inhibition,[9],Active
FC(F)(F)Oc1ccc(/N=c2\ssnc2Cl)cc1,inhibition,[7],> 90%
O=c1[nH]c2ccccc2n1C1CCN(CCCC(c2ccc(F)cc2)c2ccc(F)cc2)CC1,inhibition,[5],Active
same,inhibition,[6],Active
Cc1cc(Nc2nc(N[C@@H](C)c3ncc(F)cn3)ncc2Cl)[nH]n1,inhibition,[10],Active
same,inhibition,[11],Active
same,inhibition,[12],Active
same,inhibition,[13],Active

# — ChEMBL document CHEMBL5393457, “Combined inhibition of amino acid transporters for inhibiting human plasmacytoid dendritic cell activity during autoimmunity” (2022)
